Experimental data taken from the METLIN SMRT retention time set (Domingo-Almenara et al. 2019).

Test: gradient 5% acetonitrile 3 min, to 50% in 2 min, to 85% in 15 min, held 3 min, 100 µL/min
Details: column: Zorbax Extend-C18 2.1 x 50 mm; eluents: water / acetonitrile, 0.1% formic acid
How it was run: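 Using water and acetonitrile that each contained 0.1% formic acid, mixtures of ~100 pure standards were separated at 100 μL/min on a Zorbax Extend-C18 column (2.1 × 50 mm, 1.8 μm). The HPLC fed a quadrupole time-of-flight mass spectrometer working in positive and negative ionization mode, with dead and dwell volumes of 40 μL and 900 μL. Data were acquired over 3 months. Retention time was read from computationally picked adduct peaks after manual inspection of each.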

RP-LC retention time [s] | SMILES
999 | Cc1c(C(=O)NC2CCCC2)cnn1-c1ccc(-c2nc(C3CC3)no2)cn1
678 | O=C(NCc1ccccc1F)c1nc(N2CCOCC2)c2ccccc2n1
766 | O=C(Cc1c(F)cccc1Cl)N1C[C@@H]2C[C@H]1C[C@@H]2NS(=O)(=O)c1cccs1
931 | CSc1ccc(CNC(=O)C2CCN(c3nnc(-c4ccc(C)cc4)o3)CC2)cc1
653 | CCC(c1cccs1)N1C(=O)[C@H]2CN(Cc3cccnc3)C[C@H]2C1=O (stereo partly specified)
808 | CCn1ccc(C(=O)N2CC(Oc3cccc(-c4nc(C)no4)c3)C2)n1
659 | O=C1[C@H]2CN(Cc3cccc(Cl)c3)C[C@H]2C(=O)N1CCN1CCc2ccccc2C1
621 | O=C(O)c1ccccc1N1C(=O)C2C3C=CC(C3)C2C1=O (stereo unspecified)
928 | COC(=O)Cn1nc(-c2nc(-c3ccc(C)cc3)no2)ccc1=O
852 | Cc1ccc(S(=O)(=O)N2C[C@H]3CN(C(=O)Nc4cccc(C)c4)C[C@@H](C2)O3)cc1
1060 | Cc1cc(C)n(-c2cc(N3CCCC(C(=O)Nc4cccc(C(F)(F)F)c4)C3)ncn2)n1 (stereo unspecified)
705 | Cc1oc(-c2[nH]ncc2C(=O)N2CCCC2)cc1S(=O)(=O)Nc1ccc(F)cc1
524 | CN(C)C[C@@H]1CN(C2CCOCC2)C[C@H]1NS(=O)(=O)c1ccc(C#N)cc1
1320 | CC(C)Cc1csc(-c2csc(S(=O)(=O)NC3CCCCC3)c2)n1
710 | Cc1noc(C)c1CC(=O)N1CCCn2cc(-c3ccccc3F)nc21
733 | COCc1noc(C2CN(C(=O)c3ocnc3C)CC23CCCC3)n1 (stereo unspecified)
626 | CSc1cccc(NC(=O)N(C)Cc2nc3cc(C(=O)N(C)C)ccc3n2C)c1
1030 | Cc1ccc(NC(=O)Nc2ccc3c(c2)CCN3S(=O)(=O)c2ccccc2)cc1C

RP-LC retention time [s] | SMILES
598 | O=[N+]([O-])c1ccc(-c2cn3ccccc3n2)cc1
813 | Cc1ccccc1OCC(=O)N1C[C@@H]2C[C@H](NC(=O)c3ccccc3)[C@H]1C2
935 | CC1=NS(=O)(=O)N(C)C=C1C(=O)OCc1cc(F)ccc1F
807 | CCc1noc(NC(C)=O)c1-c1ccc(C)c(S(=O)(=O)NCc2cccc(OC)c2)c1
855 | O=C(NC1CCN(c2ccccc2)C1=O)c1cccc(Br)c1 (stereo unspecified)
588 | CSc1ccccc1CN1CCC(CNC(=O)C2(c3ccccc3)CCOCC2)CC1
902 | CC(=O)c1cccc(NC2=NS(=O)(=O)C(c3cccc(Cl)c3)=C2C)c1
619 | Cc1nc2cccnc2n1C1CCN(C(=O)Nc2ccc(F)cc2F)CC1
878 | COc1ccc(-c2nc3cnccn3c2Nc2ccc(C)c(Cl)c2)cc1OC
653 | CCOCCCNC(=O)N1CCN(Cc2nc3cccnc3n2-c2cc(C)cc(C)c2)CC1
1050 | CCOc1ccc(CCNC(=O)c2cc3sccc3n2CC)cc1OCC
1100 | CCOc1ccccc1NC(=O)N1CCCC1c1nc(-c2ccc(OC)cc2)no1 (stereo unspecified)
722 | O=C(Nc1ccc(N2CCCCC2=O)cc1)c1cccc2ccccc12
1040 | COc1ccc(-n2c(=O)c3sccc3n(Cc3nc(-c4ccc(F)c(Cl)c4)no3)c2=O)cc1
1120 | Cc1cccc2c(=O)n(C3CCN(S(=O)(=O)c4ccc(C(C)C)cc4)CC3)cnc12
707 | CS(=O)(=O)N1CCCC(C(=O)Nc2nc3cc4c(cc3s2)OCCO4)C1 (stereo unspecified)
922 | CC1Oc2ccc(-c3csc(NC(=O)C4CCCCC4)n3)cc2NC1=O (stereo unspecified)

SMILES | RP-LC retention time [s]
O=C(c1ccsc1)N1[C@H]2CC[C@@H]1c1cnc(-c3ccccc3)nc1C2 | 886
